Molecular target: T1, Gal-1 (Homo sapiens, UniProt P09382)
T1 construct: made in house; host or cells: E. coli BL21(DE3)
Test: Pull-down assay with immobilized protein and LSM libraries
Assay type: binding
Conditions: H12 library; 1:1 binding assumed; read-out: Surface mapping KD (apparent)
Description: Pull-down assays with immobilized test proteins and foldameric LSM libraries were carried out. Proteins were equilibrated with LSM probes, and equilibrium bound fractions (FB) were determined from the unbound fractions measured by HPLC-MS methods. Hits were corrected with background binding of the resin. The protocol allowed all binding events to equilibrate irrespective of affinity, specificity, and binding kinetics. This was essential to judge overall druggability and promiscuity. Importantly, the concentration of protein and the total concentration of foldameric LSMs were equimolar, which minimized competition between the probes. This experimental setup approximated independent binding of individual library members. Results were visualized as heat maps of dissociation constants (Fig. 3).
Pull-down assay and data analysis
Pull-down assay. LSM sublibraries were screened separately as previously described.(2) Experiments were performed in the following buffers: (i) 20 mM pH 7.4 HEPES, 150 mM NaCl, 5 mM CaCl2 for CaM; (ii) 50 mM pH 7.4 HEPES, 150 mM NaCl, 1 mM TCEP, 1 mM CaCl2 for S100 proteins; (iii) 20 mM pH 7.4 HEPES, 150 mM NaCl, 1 mM TCEP for Gal-1 and (iv) 20 mM pH 7.4 HEPES, 150 mM NaCl for RecQ-WH. Assays were performed in paper filter spin cups (Thermo Scientific) with sample volumes of 100 µl. Hexahistidine-tagged proteins were immobilized on previously washed Co-NTA resin (TALON, Takara Bio USA, Inc., Mountain View, CA) in 64 µM final concentration. LSM sublibrary was added, in which each of the 64 library members were used at a concentration of 1 µM. Samples were incubated at room temperature for 30 min with shaking at 100 rpm. Then, samples were centrifuged at 1000 rpm for 2 min and washed with 100 µl pull-down buffer to remove unbound compounds.
The control experiments were performed using the same compounds and the resin but without the immobilized protein. In case of competitive assays, competitor peptides were added to LSM sublibrary samples in 200 µM final concentration. In the case of Gal-1, lactose (competitor) was used in a concentration of 10 mM. Experiments were performed at least twice. Mean […]
LC-MS methods and parameters. HPLC/ESI-MS analysis was used to characterize the samples from the pull-down assay. LC-MS analysis was performed with a Thermo Scientific Dionex UltiMate 3000 HPLC system interfaced to an LTQ ion trap mass spectrometer (Thermo Electron Corp., San Jose, CA, USA). Samples were injected onto an Aeris Widepore XB-C18 (250 x 4.6 mm) analytical HPLC column using gradient elution 5-80 % solution B during 25 minutes. For pull-down samples, eluent composition was 0.1% acetic acid in distilled water (Solution A) and 0.1% acetic acid in acetonitrile (solution B). Mass spectra were acquired in full scan mode from 200 to 2000 m/z range. For overlapping peaks, selective reaction monitoring (SRM) was […]
MS data analysis. Thermo Xcalibur 2.2 software was used for peak identification and integration. The majority of the foldameric fragments could be resolved independently via HPLC-MS/MS measurements based on molecular weight, MS fragmentation pattern and retention time. Peaks of some foldamers with β3-hIle or β3-hLeu in position R2 could not be resolved, these were integrated and averaged. In the processing method, each sample component was associated to a chromatographic peak based on previously identified mass (m/z) and retention time (ref (2) and Table S7-10). Using ICIS peak detection algorithm, the general detection and integration criteria were: smoothing points: 5, baseline window: 80, area noise factor: 5, peak noise factor: 10. Using these processing setups, all raw data files were reprocessed together and analyzed. Errors in peak identification during the automatic processing were corrected manually.
Calculation of the discussed parameters
1. Bound fractions (FB.) were calculated from the HPLC-MS intensity loss of the LSM probes compared to the control where no protein was immobilized to the resin: […]

T1 sequence (P09382 whole entry): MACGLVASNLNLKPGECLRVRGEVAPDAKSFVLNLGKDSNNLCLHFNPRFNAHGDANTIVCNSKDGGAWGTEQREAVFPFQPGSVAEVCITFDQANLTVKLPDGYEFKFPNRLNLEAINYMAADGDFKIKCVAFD

Kd [µM] | Structure (SMILES)
226 | NC(=O)C[C@@H](CC(=O)N[C@H]1CCC[C@@H]1C(=O)N[C@H]1CCC[C@@H]1C(N)=O)NC(=O)[C@H]1CCC[C@@H]1NC(=O)[C@H]1CCC[C@@H]1NC(=O)C[C@H](CC(=O)O)NC(=O)[C@H]1CCC[C@@H]1NC(=O)[C@H]1CCC[C@@H]1N [H12 DN]
244 | NC(=O)CC[C@@H](CC(=O)N[C@H]1CCC[C@@H]1C(=O)N[C@H]1CCC[C@@H]1C(N)=O)NC(=O)[C@H]1CCC[C@@H]1NC(=O)[C@H]1CCC[C@@H]1NC(=O)C[C@H](CC(=O)O)NC(=O)[C@H]1CCC[C@@H]1NC(=O)[C@H]1CCC[C@@H]1N [H12 DQ]
199 | NC(=O)[C@H]1CCC[C@@H]1NC(=O)[C@H]1CCC[C@@H]1NC(=O)C[C@H](CO)NC(=O)[C@H]1CCC[C@@H]1NC(=O)[C@H]1CCC[C@@H]1NC(=O)C[C@H](CC(=O)O)NC(=O)[C@H]1CCC[C@@H]1NC(=O)[C@H]1CCC[C@@H]1N [H12 DS]
398 | C[C@@H](O)[C@@H](CC(=O)N[C@H]1CCC[C@@H]1C(=O)N[C@H]1CCC[C@@H]1C(N)=O)NC(=O)[C@H]1CCC[C@@H]1NC(=O)[C@H]1CCC[C@@H]1NC(=O)C[C@H](CC(=O)O)NC(=O)[C@H]1CCC[C@@H]1NC(=O)[C@H]1CCC[C@@H]1N [H12 DT]
270 | CC(C)[C@@H](CC(=O)N[C@H]1CCC[C@@H]1C(=O)N[C@H]1CCC[C@@H]1C(N)=O)NC(=O)[C@H]1CCC[C@@H]1NC(=O)[C@H]1CCC[C@@H]1NC(=O)C[C@H](CC(=O)O)NC(=O)[C@H]1CCC[C@@H]1NC(=O)[C@H]1CCC[C@@H]1N [H12 DV]
240 | NC(=O)[C@H]1CCC[C@@H]1NC(=O)[C@H]1CCC[C@@H]1NC(=O)C[C@H](Cc1c[nH]c2ccccc12)NC(=O)[C@H]1CCC[C@@H]1NC(=O)[C@H]1CCC[C@@H]1NC(=O)C[C@H](CC(=O)O)NC(=O)[C@H]1CCC[C@@H]1NC(=O)[C@H]1CCC[C@@H]1N [H12 DW]
205 | NC(=O)[C@H]1CCC[C@@H]1NC(=O)[C@H]1CCC[C@@H]1NC(=O)C[C@H](Cc1ccc(O)cc1)NC(=O)[C@H]1CCC[C@@H]1NC(=O)[C@H]1CCC[C@@H]1NC(=O)C[C@H](CC(=O)O)NC(=O)[C@H]1CCC[C@@H]1NC(=O)[C@H]1CCC[C@@H]1N [H12 DY]
340 | C[C@@H](CC(=O)N[C@H]1CCC[C@@H]1C(=O)N[C@H]1CCC[C@@H]1C(N)=O)NC(=O)[C@H]1CCC[C@@H]1NC(=O)[C@H]1CCC[C@@H]1NC(=O)C[C@H](CCC(=O)O)NC(=O)[C@H]1CCC[C@@H]1NC(=O)[C@H]1CCC[C@@H]1N [H12 EA]
238 | NC(=O)[C@H]1CCC[C@@H]1NC(=O)[C@H]1CCC[C@@H]1NC(=O)C[C@H](CC(=O)O)NC(=O)[C@H]1CCC[C@@H]1NC(=O)[C@H]1CCC[C@@H]1NC(=O)C[C@H](CCC(=O)O)NC(=O)[C@H]1CCC[C@@H]1NC(=O)[C@H]1CCC[C@@H]1N [H12 ED]
349 | NC(=O)[C@H]1CCC[C@@H]1NC(=O)[C@H]1CCC[C@@H]1NC(=O)C[C@H](CCC(=O)O)NC(=O)[C@H]1CCC[C@@H]1NC(=O)[C@H]1CCC[C@@H]1NC(=O)C[C@H](CCC(=O)O)NC(=O)[C@H]1CCC[C@@H]1NC(=O)[C@H]1CCC[C@@H]1N [H12 EE]
245 | NC(=O)[C@H]1CCC[C@@H]1NC(=O)[C@H]1CCC[C@@H]1NC(=O)C[C@H](Cc1ccccc1)NC(=O)[C@H]1CCC[C@@H]1NC(=O)[C@H]1CCC[C@@H]1NC(=O)C[C@H](CCC(=O)O)NC(=O)[C@H]1CCC[C@@H]1NC(=O)[C@H]1CCC[C@@H]1N [H12 EF]
244 | CC[C@H](C)[C@@H](CC(=O)N[C@H]1CCC[C@@H]1C(=O)N[C@H]1CCC[C@@H]1C(N)=O)NC(=O)[C@H]1CCC[C@@H]1NC(=O)[C@H]1CCC[C@@H]1NC(=O)C[C@H](CCC(=O)O)NC(=O)[C@H]1CCC[C@@H]1NC(=O)[C@H]1CCC[C@@H]1N [H12 EI]
200 | NCCCC[C@@H](CC(=O)N[C@H]1CCC[C@@H]1C(=O)N[C@H]1CCC[C@@H]1C(N)=O)NC(=O)[C@H]1CCC[C@@H]1NC(=O)[C@H]1CCC[C@@H]1NC(=O)C[C@H](CCC(=O)O)NC(=O)[C@H]1CCC[C@@H]1NC(=O)[C@H]1CCC[C@@H]1N [H12 EK]
244 | CC(C)C[C@@H](CC(=O)N[C@H]1CCC[C@@H]1C(=O)N[C@H]1CCC[C@@H]1C(N)=O)NC(=O)[C@H]1CCC[C@@H]1NC(=O)[C@H]1CCC[C@@H]1NC(=O)C[C@H](CCC(=O)O)NC(=O)[C@H]1CCC[C@@H]1NC(=O)[C@H]1CCC[C@@H]1N [H12 EL]
251 | CSCC[C@@H](CC(=O)N[C@H]1CCC[C@@H]1C(=O)N[C@H]1CCC[C@@H]1C(N)=O)NC(=O)[C@H]1CCC[C@@H]1NC(=O)[C@H]1CCC[C@@H]1NC(=O)C[C@H](CCC(=O)O)NC(=O)[C@H]1CCC[C@@H]1NC(=O)[C@H]1CCC[C@@H]1N [H12 EM]
236 | NC(=O)CC[C@@H](CC(=O)N[C@H]1CCC[C@@H]1C(=O)N[C@H]1CCC[C@@H]1C(N)=O)NC(=O)[C@H]1CCC[C@@H]1NC(=O)[C@H]1CCC[C@@H]1NC(=O)C[C@H](CCC(=O)O)NC(=O)[C@H]1CCC[C@@H]1NC(=O)[C@H]1CCC[C@@H]1N [H12 EQ]
289 | NC(=O)[C@H]1CCC[C@@H]1NC(=O)[C@H]1CCC[C@@H]1NC(=O)C[C@H](CO)NC(=O)[C@H]1CCC[C@@H]1NC(=O)[C@H]1CCC[C@@H]1NC(=O)C[C@H](CCC(=O)O)NC(=O)[C@H]1CCC[C@@H]1NC(=O)[C@H]1CCC[C@@H]1N [H12 ES]
372 | C[C@@H](O)[C@@H](CC(=O)N[C@H]1CCC[C@@H]1C(=O)N[C@H]1CCC[C@@H]1C(N)=O)NC(=O)[C@H]1CCC[C@@H]1NC(=O)[C@H]1CCC[C@@H]1NC(=O)C[C@H](CCC(=O)O)NC(=O)[C@H]1CCC[C@@H]1NC(=O)[C@H]1CCC[C@@H]1N [H12 ET]
316 | CC(C)[C@@H](CC(=O)N[C@H]1CCC[C@@H]1C(=O)N[C@H]1CCC[C@@H]1C(N)=O)NC(=O)[C@H]1CCC[C@@H]1NC(=O)[C@H]1CCC[C@@H]1NC(=O)C[C@H](CCC(=O)O)NC(=O)[C@H]1CCC[C@@H]1NC(=O)[C@H]1CCC[C@@H]1N [H12 EV]
235 | NC(=O)[C@H]1CCC[C@@H]1NC(=O)[C@H]1CCC[C@@H]1NC(=O)C[C@H](Cc1c[nH]c2ccccc12)NC(=O)[C@H]1CCC[C@@H]1NC(=O)[C@H]1CCC[C@@H]1NC(=O)C[C@H](CCC(=O)O)NC(=O)[C@H]1CCC[C@@H]1NC(=O)[C@H]1CCC[C@@H]1N [H12 EW]
260 | NC(=O)[C@H]1CCC[C@@H]1NC(=O)[C@H]1CCC[C@@H]1NC(=O)C[C@H](Cc1ccc(O)cc1)NC(=O)[C@H]1CCC[C@@H]1NC(=O)[C@H]1CCC[C@@H]1NC(=O)C[C@H](CCC(=O)O)NC(=O)[C@H]1CCC[C@@H]1NC(=O)[C@H]1CCC[C@@H]1N [H12 EY]
462 | CC[C@H](C)[C@@H](CC(=O)N[C@H]1CCC[C@@H]1C(=O)N[C@H]1CCC[C@@H]1C(=O)N[C@@H](CC(=O)O)CC(=O)N[C@H]1CCC[C@@H]1C(=O)N[C@H]1CCC[C@@H]1C(N)=O)NC(=O)[C@H]1CCC[C@@H]1NC(=O)[C@H]1CCC[C@@H]1N [H12 ID]
401 | CC[C@H](C)[C@@H](CC(=O)N[C@H]1CCC[C@@H]1C(=O)N[C@H]1CCC[C@@H]1C(=O)N[C@@H](CC(N)=O)CC(=O)N[C@H]1CCC[C@@H]1C(=O)N[C@H]1CCC[C@@H]1C(N)=O)NC(=O)[C@H]1CCC[C@@H]1NC(=O)[C@H]1CCC[C@@H]1N [H12 IN]
446 | CC[C@H](C)[C@@H](CC(=O)N[C@H]1CCC[C@@H]1C(=O)N[C@H]1CCC[C@@H]1C(=O)N[C@@H](CCC(N)=O)CC(=O)N[C@H]1CCC[C@@H]1C(=O)N[C@H]1CCC[C@@H]1C(N)=O)NC(=O)[C@H]1CCC[C@@H]1NC(=O)[C@H]1CCC[C@@H]1N [H12 IQ]
